The values that follow come from publication PMC5706701, “Development of a homogenous high-throughput assay for inositol hexakisphosphate kinase 1 activity” (PLoS ONE, 2017).

This experiment concerns the target T1, Human IP6K1 (Homo sapiens, UniProt Q92551).
T1 construct: GST (N, cleaved yes); made in house; host or cells: C43 E. coli, pGEX-6P-2
In words: IP6K1 high-throughput screen of the Sigma LOPAC (ADP-Glo Max, single point).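 Also: final compound concentration 10µM in 5% DMSO.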 It is filed as biochemical.

The mark [1] stands for this setting: LOPAC single-point screen, ADP-Glo Max raw signal per well.
[2] abbreviates: LOPAC single-point screen, Z-score against plate average and StDev.
Setting [3] is: Sigma LOPAC single-point screen, ADP-Glo Max raw signal per well.
Where [4] appears, read: Sigma LOPAC single-point screen, Z-score from plate average and StDev.
Setting [5] is: LOPAC single-point screen, Z-score from raw signal with plate average and StDev.
[6] abbreviates: LOPAC single-point screen, ADP-Glo Max luminescence raw signal per well.
[7] abbreviates: LOPAC single-point screen, Z-score from plate average and StDev.
Where [8] appears, read: LOPAC single-point screen, Z-score relative to plate average and StDev.

Each structure is given as a SMILES string. Structures can show the parent of a compound that is named as a salt. Where two headings read alike, the source gives them in different places.

T1 sequence (Q92551 whole entry): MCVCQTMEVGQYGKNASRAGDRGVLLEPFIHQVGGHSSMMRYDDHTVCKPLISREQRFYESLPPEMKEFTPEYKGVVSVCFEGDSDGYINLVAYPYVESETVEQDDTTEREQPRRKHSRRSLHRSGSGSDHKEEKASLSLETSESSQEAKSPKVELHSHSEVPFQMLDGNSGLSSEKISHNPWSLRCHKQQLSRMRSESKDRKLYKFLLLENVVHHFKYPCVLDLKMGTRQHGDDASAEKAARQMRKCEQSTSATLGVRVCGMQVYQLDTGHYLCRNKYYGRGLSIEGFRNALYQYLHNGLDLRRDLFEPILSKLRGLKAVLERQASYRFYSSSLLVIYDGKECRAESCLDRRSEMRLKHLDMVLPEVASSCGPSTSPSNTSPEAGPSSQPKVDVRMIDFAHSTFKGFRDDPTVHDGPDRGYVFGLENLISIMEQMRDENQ

In the case of `N[C@@H]1C[C@H]1c1ccccc1` [Tranylcypromine hydrochloride], under setting [1], the “Raw Signal” value was found to be 55566. The same compound came in with a Z-score under setting [2] of -0.08894.
On to `O=c1n(CCCN2CCN(c3cccc(Cl)c3)CC2)nc2ccccn12` [Trazodone hydrochloride], for which the “Raw Signal” value under setting [3] is recorded as 58114. The compound also came in with a Z-score under setting [4] of 0.4061.
In the case of `COc1cc2c(cc1OC)-c1c/c(=N\c3c(C)cc(C)cc3C)n(C)c(=O)n1CC2` [Trequinsin hydrochloride], the “Raw Signal” value under setting [1] came out at 54369. Under setting [5], this compound yielded a Z-score of -0.3215.
Take `C[C@]12C=CC(=O)C=C1CC[C@H]1[C@@H]3C[C@@H](O)[C@](O)(C(=O)CO)[C@@]3(C)C[C@H](O)[C@@]12F` [Triamcinolone]: the “Raw Signal” value under setting [3] is listed as 60096. This compound also returned a Z-score under setting [4] of 0.7912.
For `Nc1nc(N)c2nc(-c3ccccc3)c(N)nc2n1` [Triamterene], the “Raw Signal” value under setting [6] was 65476. Further, under setting [7], the Z-score is listed as 1.836.
Turning to `CN1CCN(CCCN2c3ccccc3Sc3ccc(C(F)(F)F)cc32)CC1` [Trifluoperazine dihydrochloride], the “Raw Signal” value under setting [3] amounted to 58037. Also, the Z-score under setting [4] was 0.3911.
Regarding `O=C(CCCN1CCC(O)(c2cccc(C(F)(F)F)c2)CC1)c1ccc(F)cc1` [Trifluperidol hydrochloride], the “Raw Signal” value under setting [1] was determined as 56876. Also, under setting [2], the Z-score came to 0.1656.
With `CN(C)CCCN1c2ccccc2Sc2ccc(C(F)(F)F)cc21` [Triflupromazine hydrochloride], the “Raw Signal” value under setting [1] was 54007. This compound also returned a Z-score under setting [5] of -0.3918.
Take `OC(CCN1CCCCC1)(c1ccccc1)C1CCCCC1` (stereo not drawn) [Trihexyphenidyl hydrochloride]: the “Raw Signal” value under setting [3] was determined as 57771. Under setting [4], this compound had a Z-score of 0.3394.
Turning to `COc1cc(Cc2cnc(N)nc2N)cc(OC)c1OC` [Trimethoprim], the “Raw Signal” value under setting [3] is given as 61776. In addition, the Z-score under setting [4] is on record as 1.118.
Regarding `CC(CN(C)C)CN1c2ccccc2CCc2ccccc21` (stereo not drawn) [Trimipramine maleate], the “Raw Signal” value under setting [6] worked out at 53117. The compound further showed a Z-score under setting [8] of -0.5647.
Consider `Cc1ccc(/C(=C\CN2CCCC2)c2ccccn2)cc1.Cl` [Triprolidine hydrochloride], for which the “Raw Signal” value under setting [1] stood at 57463. The compound also yielded a Z-score under setting [2] of 0.2796.
Regarding `NCCc1c[nH]c2ccccc12` [Tryptamine hydrochloride], the “Raw Signal” value under setting [3] worked out at 60596. This compound also gave a Z-score under setting [4] of 0.4725.
In the case of `CC(C)(C)NCC(O)c1ccccc1Cl` (stereo not drawn) [Tulobuterol hydrochloride], under setting [1], the “Raw Signal” value is listed as 54303. In addition, under setting [5], the Z-score is reported as -0.3343.
Turning to `N#CC(C#N)=Cc1ccc(O)c(O)c1` [Tyrphostin 23], the “Raw Signal” value under setting [6] is on record as 48444. Besides, the Z-score under setting [8] is recorded as -1.473.
Regarding `N#CC(C#N)=Cc1cc(O)c(O)c(O)c1` [Tyrphostin 25], the “Raw Signal” value under setting [6] is 46819. In addition, the Z-score under setting [8] is given as -1.788.
With `N#C/C(=C\c1ccc(O)c(O)c1)C(N)=S` [Tyrphostin 47], the “Raw Signal” value under setting [6] turned out to be 42103. Under setting [8], the Z-score is given as -2.705.
Regarding `N#CC(C#N)=C(N)/C(C#N)=C/c1cc(O)c(O)c(O)c1` [Tyrphostin 51], the “Raw Signal” value under setting [6] was determined as 44032. For the same compound, the Z-score under setting [8] is -2.33.
As to `CC(C)(C)c1cc(C=C(C#N)C#N)cc(C(C)(C)C)c1O` [Tyrphostin A9], the “Raw Signal” value under setting [1] amounted to 55633. For the same compound, the Z-score under setting [2] is on record as -0.07593.
With `COc1cc(C=C(C#N)C#N)cc(O)c1O` [Tyrphostin AG 34], the “Raw Signal” value under setting [1] was determined as 55934. In addition, the Z-score under setting [2] is recorded as -0.01745.
`N#CC(C#N)=C(N)/C(C#N)=C/c1ccc(O)cc1` [Tyrphostin AG 112]: the “Raw Signal” value under setting [6] is 52903. The compound further registered a Z-score under setting [8] of -0.6063.
Turning to `N#CC(C#N)=Cc1ccc([N+](=O)[O-])c(O)c1` [Tyrphostin AG 126], the “Raw Signal” value under setting [6] was 65028. Further, the Z-score under setting [7] is 1.749.
For the compound `N#C/C(=C\c1ccc(O)c(O)c1)C(=O)NCc1ccccc1` [Tyrphostin AG 490], the “Raw Signal” value under setting [1] is 54184. Under setting [5], this compound returned a Z-score of -0.3574.
In the case of `N#C/C(=C\c1ccc(O)c(O)c1)C(=O)Nc1ccccc1` [Tyrphostin AG 494], under setting [1], the “Raw Signal” value amounted to 54872. The same compound had a Z-score under setting [5] of -0.2238.
`C[C@@H](NC(=O)/C(C#N)=C/c1ccc(O)c(O)c1)c1ccccc1` [Tyrphostin AG 527]: the “Raw Signal” value under setting [1] turned out to be 54153. This compound registered a Z-score under setting [5] of -0.3635.
For the compound `N#C/C(=C\c1ccc(O)c(O)c1)C(=O)N1CCc2ccccc21` [Tyrphostin AG 528], the “Raw Signal” value under setting [3] turned out to be 58882. For the same compound, the Z-score under setting [4] came to 0.5553.
On to `N#C/C(=C\c1ccc(O)c(O)c1)C(=O)NCCCNC(=O)/C(C#N)=C/c1ccc(O)c(O)c1` [Tyrphostin AG 537], for which the “Raw Signal” value under setting [6] is 33325. In addition, the Z-score under setting [8] is -4.41.
As for `N#C/C(=C\c1ccc(O)c(O)c1)C(=O)c1ccc(O)c(O)c1` [Tyrphostin AG 538], the “Raw Signal” value under setting [6] was 38614. The same compound had a Z-score under setting [8] of -3.382.
In the case of `N#C/C(=C\c1ccc(O)c(O)c1)C(=O)NCCCc1ccccc1` [Tyrphostin AG 555], the “Raw Signal” value under setting [1] is 55783. This compound also showed a Z-score under setting [2] of -0.04678.
As for `N#C/C(=C\c1c[nH]c2ccccc12)C(=O)c1ccc(O)c(O)c1` [Tyrphostin AG 808], the “Raw Signal” value under setting [1] amounted to 55945. The same compound yielded a Z-score under setting [2] of -0.01531.
For the compound `CC(C)(C)c1cc(/C=C(\C#N)C(N)=S)cc(C(C)(C)C)c1O` [Tyrphostin AG 879], the “Raw Signal” value under setting [1] was 56085. Under setting [2], this compound showed a Z-score of 0.01189.
For the compound `COc1cc2ncnc(Nc3cccc(Cl)c3)c2cc1OC` [Tyrphostin AG 1478], the “Raw Signal” value under setting [3] was 57891. In addition, the Z-score under setting [4] is 0.3628.
As for `N#CC(=C(/N)Sc1ccccc1N)/C(C#N)=C(/N)Sc1ccccc1N` [U0126], the “Raw Signal” value under setting [1] amounted to 55334. Besides, under setting [5], the Z-score was -0.134.
For the compound `COc1ccc2c(c1)CC[C@@H]1[C@@H]2CC[C@]2(C)[C@@H](NCCCCCCN3C(=O)C=CC3=O)CC[C@@H]12` [U-73122], the “Raw Signal” value under setting [1] stood at 55186. Further, the Z-score under setting [5] was -0.1628.
In the case of `C[C@]12C=CC(=O)C=C1CC[C@@H]1C2=CC[C@]2(C)[C@@H](C(=O)CN3CCN(c4cc(N5CCCC5)nc(N5CCCC5)n4)CC3)CC[C@@H]12.O=C(O)/C=C\C(=O)O` [U-74389G maleate], the “Raw Signal” value under setting [6] is on record as 52844. Also, the Z-score under setting [8] is reported as -0.6178.
With `CCCCC/C=C\C[C@@H](O)/C=C/c1cccc(C[C@@H](O)CCCCO)n1` [U-75302], the “Raw Signal” value under setting [6] is 63793. Moreover, under setting [7], the Z-score worked out at 1.509.
Take `Cc1c(C)c2c(c(C)c1O)CCC(C)(CN1CCN(c3cc(N4CCCC4)nc(N4CCCC4)n3)CC1)O2.Cl.Cl` (stereo not drawn) [U-83836 dihydrochloride]: the “Raw Signal” value under setting [6] is 52883. Also, the Z-score under setting [8] is reported as -0.6102.
Take `CCCN(CCC)C1Cc2cc(OC)c(OC)cc2C1.O=C(O)/C=C\C(=O)O` [U-99194A maleate]: under setting [1], the “Raw Signal” value is on record as 57664. Under setting [2], this compound displayed a Z-score of 0.3187.
As to `CC(C)Oc1cccnc1N(C)C1CCN(Cc2ccccc2)CC1.O=C(O)/C=C\C(=O)O` [U-101958 maleate], under setting [6], the “Raw Signal” value came to 65094. For the same compound, the Z-score under setting [7] turned out to be 1.762.
Turning to `Brc1c(NC2=NCCN2)ccc2nccnc12` [UK 14,304], the “Raw Signal” value was determined as 53944 and the Z-score is -0.4041.
Consider `COc1ccccc1N1CCN(CCCNc2cc(=O)n(C)c(=O)n2C)CC1` [Urapidil hydrochloride], for which the “Raw Signal” value under setting [1] worked out at 54926. Under setting [5], this compound yielded a Z-score of -0.2133.
In the case of `COc1ccccc1N1CCN(CCCNc2c(C)c(=O)n(C)c(=O)n2C)CC1` [Urapidil, 5-Methyl-], under setting [3], the “Raw Signal” value was 62058. Under setting [4], this compound registered a Z-score of 1.172.
Consider `O=c1ccn(C2OC(COP(=O)(O)OP(=O)([O-])O)C(O)C2O)c(=O)[nH]1.[Na+]` (stereo not drawn) [Uridine 5 -diphosphate sodium], for which the “Raw Signal” value under setting [3] came out at 58265. The compound also returned a Z-score under setting [4] of 0.4354.
In the case of `C[C@H](N)CN1CCc2ccc(Br)cc21.C[C@H](N)CN1CCc2ccc(Br)cc21.O=C(O)/C=C/C(=O)O` [VER-3323 hemifumarate salt], under setting [3], the “Raw Signal” value was 59728. The same compound had a Z-score under setting [4] of 0.8963.
`COc1ccccc1NC(=O)Nc1nc(-c2cccnc2)nc2ccccc12` [VUF 5574]: under setting [3], the “Raw Signal” value is 58097. Under setting [4], this compound registered a Z-score of 0.4028.
Take `CCCC(CCC)C(=O)O` [Valproic acid sodium]: the “Raw Signal” value under setting [6] amounted to 64941. For the same compound, the Z-score under setting [7] is reported as 1.772.
For the compound `CCN(CC)C(=O)c1ccc(O)c(OC)c1` [Vanillic acid diethylamide], the “Raw Signal” value under setting [1] is given as 56150. Under setting [2], the Z-score is given as 0.1996.
For the compound `CC[C@]1(O)C[C@@H]2CN(CCc3c([nH]c4ccccc34)[C@@](C(=O)OC)(c3cc4c(cc3OC)N(C)[C@H]3[C@@](O)(C(=O)OC)[C@H](OC(C)=O)[C@]5(CC)C=CCN6CC[C@]43[C@@H]65)C2)C1.O=S(=O)(O)O` [Vinblastine sulfate salt], under setting [1], the “Raw Signal” value was 55305. Also, the Z-score under setting [5] is listed as -0.1396.
Regarding `CC[C@]1(O)C[C@H]2CN(CCc3c([nH]c4ccccc34)[C@@](C(=O)OC)(c3cc4c(cc3OC)N(C=O)[C@H]3[C@@](O)(C(=O)OC)[C@H](OC(C)=O)[C@]5(CC)C=CCN6CC[C@]43[C@@H]65)C2)C1` [Vincristine sulfate], the “Raw Signal” value under setting [3] was 57865. The same compound registered a Z-score under setting [4] of 0.3577.
For the compound `CCOC(=O)C1=C[C@]2(CC)CCCN3CCc4c(n1c1ccccc41)[C@@H]32` [Vinpocetine], under setting [3], the “Raw Signal” value is given as 59958. Under setting [4], this compound yielded a Z-score of 0.7643.
With `Cl.NCCCCCCNS(=O)(=O)c1cccc2c(Cl)cccc12` [W-7 hydrochloride], under setting [1], the “Raw Signal” value worked out at 57979. The Z-score under setting [2] is reported as 0.01161.
